Where a SMILES comes first, the peptide text is derived from it. [ ]: non-standard residue; d: D form. The star is where a group is joined. βGlc = OC[C@H]1O[C@@H](*)[C@H](O)[C@@H](O)[C@@H]1O; Nva = CCC[C@H](N)C(=O)O
Tests used:
Assay type in all cases: cell-based
[1] = target: T1, VPAC2 (Homo sapiens, UniProt P41587); assay: Assay of peptides at PAC and VPAC receptors: VPAC2 (EC50/EMax)
T1 sequence (P41587 24-438): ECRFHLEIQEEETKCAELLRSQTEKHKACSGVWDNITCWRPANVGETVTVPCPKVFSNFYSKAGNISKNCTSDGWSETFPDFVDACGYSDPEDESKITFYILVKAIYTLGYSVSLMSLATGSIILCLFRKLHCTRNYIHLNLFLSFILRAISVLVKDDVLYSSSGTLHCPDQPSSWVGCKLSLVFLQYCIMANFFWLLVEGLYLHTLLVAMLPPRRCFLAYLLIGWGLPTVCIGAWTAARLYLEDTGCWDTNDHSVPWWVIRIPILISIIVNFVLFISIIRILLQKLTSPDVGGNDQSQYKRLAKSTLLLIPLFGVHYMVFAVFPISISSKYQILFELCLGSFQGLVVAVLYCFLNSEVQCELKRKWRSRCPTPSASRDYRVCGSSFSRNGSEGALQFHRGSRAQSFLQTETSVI

[2] = target: T2, PAC1 (Homo sapiens, UniProt P41586); assay: Assay of peptides at PAC and VPAC receptors: PAC1 (EC50/EMax)
T2 sequence (P41586 21-468): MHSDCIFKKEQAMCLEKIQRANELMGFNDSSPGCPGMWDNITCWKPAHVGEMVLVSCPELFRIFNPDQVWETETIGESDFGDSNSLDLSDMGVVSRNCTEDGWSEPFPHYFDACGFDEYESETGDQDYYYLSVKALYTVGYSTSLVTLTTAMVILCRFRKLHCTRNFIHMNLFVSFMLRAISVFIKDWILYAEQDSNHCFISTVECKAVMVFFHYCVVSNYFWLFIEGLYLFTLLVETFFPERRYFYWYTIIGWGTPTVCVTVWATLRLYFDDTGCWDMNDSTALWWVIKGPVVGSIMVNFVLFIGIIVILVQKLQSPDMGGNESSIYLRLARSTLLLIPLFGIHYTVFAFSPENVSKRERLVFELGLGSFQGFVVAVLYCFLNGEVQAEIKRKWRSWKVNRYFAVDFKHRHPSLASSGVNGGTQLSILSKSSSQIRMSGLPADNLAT

[3] = target: T3, VPAC1 (Homo sapiens, UniProt P32241); assay: Assay of peptides at PAC and VPAC receptors: VPAC1 (EC50/EMax)
T3 sequence (P32241 31-457): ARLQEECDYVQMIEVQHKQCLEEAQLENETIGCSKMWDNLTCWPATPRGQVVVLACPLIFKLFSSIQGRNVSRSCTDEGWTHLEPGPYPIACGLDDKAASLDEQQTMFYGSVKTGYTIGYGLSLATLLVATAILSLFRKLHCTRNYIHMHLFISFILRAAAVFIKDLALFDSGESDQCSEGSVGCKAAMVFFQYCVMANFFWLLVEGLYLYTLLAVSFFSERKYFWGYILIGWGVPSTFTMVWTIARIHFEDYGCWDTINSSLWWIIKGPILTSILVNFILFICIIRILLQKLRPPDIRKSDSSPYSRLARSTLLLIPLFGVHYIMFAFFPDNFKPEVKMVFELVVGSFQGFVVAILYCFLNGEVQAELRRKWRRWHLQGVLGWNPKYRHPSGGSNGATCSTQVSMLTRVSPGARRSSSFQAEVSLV

| Emax [1] [%] | Emax [2] [%] | EC50 [3] [nM] | EC50 [1] [nM] | VPAC2 EMax [1] [%] | EC50 [2] [nM] | PAC1 EMax [2] [%] | VPAC1 EMax [3] [%] | Molecule | Emax [3] [%] |
| --- | --- | --- | --- | --- | --- | --- | --- | --- | --- |
| -95 | -79 |  |  |  |  |  |  | CCC[C@H](NC(=O)[C@H](CCC(N)=O)NC(=O)[C@H](CCCCN)NC(=O)[C@H](CCCNC(=N)N)NC(=O)[C@H](Cc1ccc(O)cc1)NC(=O)[C@H](CCCNC(=N)N)NC(=O)[C@H](CO)NC(=O)[C@H](Cc1ccc(O)cc1)NC(=O)[C@H](CO)NC(=O)[C@H](CC(=O)O)NC(=O)[C@@H](NC(=O)[C@H](Cc1ccccc1)NC(=O)[C@@H](NC(=O)CNC(=O)[C@H](CC(=O)O)NC(=O)[C@@H](CO)NC(=O)[C@@H](N)Cc1c[nH]cn1)[C@@H](C)CC)[C@@H](C)O)C(=O)N[C@@H](C)C(=O)N[C@H](C(=O)N[C@@H](CCCCN)C(=O)N[C@@H](CCCCN)C(=O)N[C@@H](Cc1ccc(O)cc1)C(=O)N[C@@H](CC(C)C)C(=O)N[C@@H](C)C(=O)N[C@@H](C)C(=O)N[C@@H](CC(C)C)C(=O)N[C@@H](CO[C@@H]1O[C@H](CO)[C@@H](O)[C@H](O)[C@H]1O)C(=O)N[C@@H](CC(C)C)C(N)=O)C(C)C [CRA3002] (H-H[dS]DGIFTDSYSRYRKQ[Nva]AVKKYLAALS(βGlc)L-NH2) | 93 |
|  |  |  |  |  |  |  |  | CCC[C@H](NC(=O)[C@H](CCC(N)=O)NC(=O)[C@H](CCCCN)NC(=O)[C@H](CCCNC(=N)N)NC(=O)[C@H](Cc1ccc(O)cc1)NC(=O)[C@H](CCCNC(=N)N)NC(=O)[C@H](CO)NC(=O)[C@H](Cc1ccc(O)cc1)NC(=O)[C@H](CO)NC(=O)[C@H](CC(=O)O)NC(=O)[C@H](C)NC(=O)[C@H](Cc1ccccc1)NC(=O)[C@@H](NC(=O)CNC(=O)[C@H](CC(=O)O)NC(=O)[C@@H](CO)NC(=O)[C@@H](N)Cc1c[nH]cn1)[C@@H](C)CC)C(=O)N[C@@H](C)C(=O)N[C@H](C(=O)N[C@@H](CCCCN)C(=O)N[C@@H](CCCCN)C(=O)N[C@@H](Cc1ccc(O)cc1)C(=O)N[C@@H](CC(C)C)C(=O)N[C@@H](C)C(=O)N[C@@H](C)C(=O)N[C@H](C(=O)N[C@@H](CO[C@@H]1O[C@H](CO)[C@@H](O)[C@H](O)[C@H]1O)C(=O)N[C@@H](CC(C)C)C(N)=O)C(C)C)C(C)C [CRA3005] (H-H[dS]DGIFADSYSRYRKQ[Nva]AVKKYLAAVS(βGlc)L-NH2) | 78 |
|  |  | 0.52 | 55.6 | 91 | 0.84 | 92 | 93 | HSDGIFTDSYSRYRKQLAVKKYLAAVd8L-Ser(Cell) [2ls98Cell] |  |
|  |  | 0.45 | 193 | 100 | 0.72 | 93 | 101 | HSDGIFTDSYSRYRKQLAVd8KKYLAAVd8L-Ser(Lact) [2ls98Lact] |  |

| Molecule | Emax [1] [%] | Emax [2] [%] | EC50 [3] [nM] | EC50 [1] [nM] | VPAC2 EMax [1] [%] | EC50 [2] [nM] | PAC1 EMax [2] [%] | VPAC1 EMax [3] [%] | Emax [3] [%] |
| --- | --- | --- | --- | --- | --- | --- | --- | --- | --- |
| CCC[C@H](NC(=O)[C@H](CCC(N)=O)NC(=O)[C@H](CCCCN)NC(=O)[C@H](CCCNC(=N)N)NC(=O)[C@H](Cc1ccc(O)cc1)NC(=O)[C@H](CCCNC(=N)N)NC(=O)[C@H](CO)NC(=O)[C@H](Cc1ccc(O)cc1)NC(=O)[C@H](CO)NC(=O)[C@H](CC(=O)O)NC(=O)[C@H](C)NC(=O)[C@H](Cc1ccccc1)NC(=O)[C@@H](NC(=O)CNC(=O)[C@H](CC(=O)O)NC(=O)[C@@H](CO)NC(=O)[C@@H](N)Cc1c[nH]cn1)[C@@H](C)CC)C(=O)N[C@@H](C)C(=O)N[C@H](C(=O)N[C@@H](CCCCN)C(=O)N[C@@H](CCCCN)C(=O)N[C@@H](Cc1ccc(O)cc1)C(=O)N[C@@H](CC(C)C)C(=O)N[C@@H](C)C(=O)N[C@@H](C)C(=O)N[C@H](C(=O)N[C@@H](CO[C@@H]1O[C@H](CO)[C@@H](O)[C@H](O)[C@H]1O)C(N)=O)C(C)C)C(C)C [CRA3004] (H-H[dS]DGIFADSYSRYRKQ[Nva]AVKKYLAAVS(βGlc)-NH2) |  |  | 1370 |  |  |  |  |  | 85 |

— patent US20220380431A1, “GLYCOPEPTIDE ANALOGS OF SECRETIN FAMILY PEPTIDES” (ARIZONA BOARD OF REGENTS ON BEHALF OF THE UNIVERSITY OF …, priority 2017, published 2022)
